PubChem BioAssay AID652239 (Broad Institute, 2013)
Several values for one entry are separate records, joined by “and”; a condition that tells them apart may be missing. Identical values can stand only once. Activity calls are given as the source filed them. The rule behind the calls is not given here.

Test system: V. cholerae BH1578 lux luminescence induction, 6 h
Assay: V. cholerae BH1578 lux luminescence induction, luxS cqsA deficient, confirmatory dose response (AID 652239)
Details: not given

| Structure (SMILES) | AC40 |
| --- | --- |
| CC(C)(C)COC(=O)CSc1n[nH]c(=O)[nH]c1=O | 12.5 µM |
| O=C(Nc1nnc(-c2ccc3c(c2)OCCO3)o1)C1CCCCC1 | 7.31 µM and 2.33 µM |
| CCCCCCCCCC(=O)[C@H](O)CC (racemic) | 14.1 µM |
| Cn1nc(NC(=O)c2ccco2)c2cccnc21 | 22.2 µM |
| O=c1ncn(-c2ccccc2)c2ccccc12 | > 80 µM (inactive) |
| O=C(Cc1ccc(-c2ccccc2)cc1)NC1CCC1 | 1.26 µM |
| O=C(Nc1nnc(-c2cccnc2)o1)C1CCCCC1 | > 100 µM (inactive) |
| Cn1nc(NC(=O)c2ccco2)c2cc3ccccc3nc21 | 5.43 µM |
| O=c1ncn(-c2cccc(Cl)c2)c2ccccc12 | 14.1 µM and 31 µM |
| Cn1nc(NC(=O)c2ccco2)c2ccccc21 | > 100 µM (inactive) |
| COc1ccccc1-c1nnc(NC(=O)C2CCCCC2)o1 | > 100 µM (inactive) |
| Cc1cc(F)c2cc3c(NC(=O)c4ccco4)nn(C)c3nc2c1 | > 100 µM (inactive) |
| O=C(Cc1ccc(-c2ccccc2)cc1)N[C@@H]1CCOC1 (racemic) | 96.9 µM |
| CCCCCCCCCC(=O)C(O)CC (stereo not drawn) | 5.27 µM |
| Cc1cccc(-n2cnc(=O)c3ccccc32)c1 | 75.9 µM |
| Cc1cc2cc3c(NC(=O)c4ccco4)nn(C)c3nc2cc1C | 42.4 µM |
| O=C(Nc1nnc(-c2ccc3c(c2)OCCO3)o1)C1CCCCCC1 | > 100 µM (inactive) |
| Cc1ccc2cc3c(NC(=O)c4cccs4)nn(C)c3nc2c1 | > 80 µM (inactive) |
| O=C(Cc1ccc(-c2ccccc2)cc1)NC1COC1 | > 100 µM (inactive) |
| Cc1cc(F)cc2nc3c(cc12)c(NC(=O)c1ccco1)nn3C | 89.6 µM |
| Cc1cc2nc3c(cc2cc1F)c(NC(=O)c1ccco1)nn3C | 37.2 µM |
| CCc1ccc2cc3c(NC(=O)c4ccco4)nn(C)c3nc2c1 | 58.9 µM |
| CCn1nnnc1NCc1ccc(C(C)C)cc1 | 0.563 µM |
| COc1ccc2cc3c(NC(=O)c4ccco4)nn(C)c3nc2c1 | 3.82 µM |
| O=c1ncn(-c2cccc(F)c2)c2ccccc12 | 33.8 µM |
| O=c1ncn(-c2cc(Cl)cc(Cl)c2)c2ccccc12 | 4.71 µM |
| Cc1ccc2cc3c(NC(=O)c4ccco4)nn(C)c3nc2c1 | 11.6 µM and 16.6 µM |

Test system: not listed separately
Assay: as above
Details: V. cholerae BH1578 lux luminescence induction, 6 h; at 35 µM (top of the series)

| Structure (SMILES) | activation |
| --- | --- |
| O=C(CC1CCCCC1)Nc1nnc(-c2ccc3c(c2)CCCC3)o1 | 0.052% (inactive) |

Same assay, conditions: V. cholerae BH1578 lux luminescence induction, 6 h; at 80 µM (top of the series)

| Structure (SMILES) | activation |
| --- | --- |
| O=c1ncn(-c2cccc(Cl)c2)c2ccc(Cl)cc12 | 8.89% (inactive) |
| Cc1ccc2c(=O)ncn(-c3cccc(Cl)c3)c2c1 | 0.04% (inactive) |
| Cn1cnc(=O)c2ccccc21 | 0.029% (inactive) |
| O=C(Nc1nnc(-c2ccc3c(c2)OCCO3)o1)C1CCCC1 | 1.99% (inactive) |
| O=c1ncn(-c2ccc(F)c(Cl)c2)c2ccccc12 | 9.82% (inactive) |
| O=c1ncn(-c2ccccc2Cl)c2ccccc12 | 1.17% (inactive) |
| Cc1ccc2c(c1)c(=O)ncn2-c1cccc(Cl)c1 | 6.29% (inactive) |
| O=c1ncn(-c2cccc(Cl)c2)c2cc(Cl)ccc12 | 0.074% (inactive) |
| COc1ccc2c(=O)ncn(-c3cccc(Cl)c3)c2c1 | 0.036% (inactive) |
| COc1cccc(-n2cnc(=O)c3ccccc32)c1 | 2.59% (inactive) |
| O=c1ncn(-c2ccc(Cl)cc2)c2ccccc12 | 0.028% (inactive) |
| CCOC(=O)c1ccccc1Nc1cccc(Cl)c1 | 0.006% (inactive) |
| COc1ccc(-n2cnc(=O)c3ccccc32)cc1Cl | 0.3% (inactive) |
| O=C(CC1CCCCC1)Nc1nnc(-c2cccnc2)o1 | -0.004% (inactive) |
| Cc1ccc(-n2cnc(=O)c3ccccc32)cc1Cl | 0.07% (inactive) |
| Cc1nc(=O)c2ccccc2n1-c1cccc(Cl)c1 | 18.8% (inactive) |
| O=C1C(=O)N(Cc2cccc(Cl)c2)c2ccccc21 | 0.06% (inactive) |
| O=C(Nc1nnc(-c2ccc(Cl)cc2)o1)C1CCCCC1 | -0.011% (inactive) |
| CCc1nc(=O)c2ccccc2n1-c1cccc(Cl)c1 | 0.079% (inactive) |

| Structure (SMILES) | activation |
| --- | --- |
| CCC(C)(C)C(=O)Nc1nnc(-c2ccc3c(c2)OCCO3)o1 | -0.001% (inactive) |
| O=c1ncn(Cc2ccc(Cl)cc2)c2ccccc12 | 0.451% (inactive) |
| O=c1ncn(-c2cccc(Cl)c2)c2cccc(Cl)c12 | 0.031% (inactive) |
| O=C(Nc1nnc(-c2ccc3c(c2)CCCC3)o1)C1CCC1 | 0% (inactive) |
| O=c1nc(Cc2ccccc2)n(-c2cccc(Cl)c2)c2ccccc12 | 3.07% (inactive) |
| Cc1ccc2cc3c(NC(=O)C4CCCC4)nn(C)c3nc2c1 | 11.2% (inactive) |
| NC(=O)c1ccccc1Nc1ccccc1 | 0.161% (inactive) |
| O=c1nc(-c2ccccc2)n(-c2cccc(Cl)c2)c2ccccc12 | -0.006% (inactive) |
| O=C(CSc1nc2ccccc2c(=O)[nH]1)NC1CCCCC1 | 0.004% (inactive) |
| NC(=O)c1ccccc1Nc1cccc(Cl)c1 | 0.057% (inactive) |
| O=C1C(=O)N(Cc2ccccc2Cl)c2ccccc21 | 0.075% (inactive) |
| O=C(Nc1nnc(-c2cccc(Cl)c2)o1)C1CCCCC1 | 0.061% (inactive) |
| O=C(CSc1nc2c(c(=O)[nH]1)CCCC2)NC1CCCCC1 | 0.193% (inactive) |
| COC(=O)c1ccccc1Nc1cccc(Cl)c1 | 0.61% (inactive) |
| Cc1ccc2cc3c(NC(=O)c4ccoc4)nn(C)c3nc2c1 | 0.029% (inactive) |
| O=C(O)c1ccccc1Nc1cccc(Cl)c1 | 0.008% (inactive) |
| O=c1[nH]cnc2ccccc12 | 0.09% (inactive) |
| O=c1ncn(-c2ccc(Cl)c(Cl)c2)c2ccccc12 | 0.032% (inactive) |

Same assay, conditions: V. cholerae BH1578 lux luminescence induction, 6 h; at 100 µM (top of the series)

| Structure (SMILES) | activation |
| --- | --- |
| CCn1nnnc1NC(C)c1ccc(N2CCCC2)cc1 (stereo not drawn) | 11.5% (inactive) |
| O=C(Nc1nnc(-c2ccc3c(c2)OCCO3)o1)C1CCC1 | 0.037% (inactive) |
| O=C(Nc1nnc(C2CCCC2)o1)C1CCCCC1 | -0.003% (inactive) |
| COc1ccc(-c2nnc(NC(C)=O)o2)cc1 | 0.028% (inactive) |
| Cn1nc(NC(=O)c2ccco2)c2cc3ccc(C(C)(C)C)cc3nc21 | 0% (inactive) |
| O=C(Nc1nnc(-c2ccncc2)o1)C1CCC1 | 0.028% (inactive) |
| C(=N\c1nnc(-c2ccc3c(c2)OCCO3)o1)/c1ccccc1 | 0.004% (inactive) |
| c1ccc(CNc2nnc(-c3ccc4c(c3)OCCO4)o2)cc1 | 0.001% (inactive) |
| COc1ccc(S(=O)(=O)Nc2nnc(-c3ccc4c(c3)OCCO4)o2)cc1 | 0.003% (inactive) |
| CC(C)c1ccc2cc3c(NC(=O)c4ccco4)nn(C)c3nc2c1 | 0.153% (inactive) |
| O=C(Nc1nnc(-c2ccc3c(c2)OCCO3)o1)C1CC1 | 0.001% (inactive) |
| Cn1ccc(NC(=O)c2ccco2)n1 | 0.036% (inactive) |
| CCn1nnnc1N | -0.013% (inactive) |
| O=C(Nc1nnc(-c2ccc3c(c2)OCCO3)o1)C(F)(F)c1ccccc1 | -0.004% (inactive) |
| COc1cccc(-c2nnc(NC(=O)C3CCCCC3)o2)c1 | -0.002% (inactive) |
| COc1ccc(-c2nnc(NC(=O)C3CCCCC3)o2)cc1 | 17.9% (inactive) |
| Cc1ccc2cc3c(NC(=O)c4ccccn4)nn(C)c3nc2c1 | -0.001% (inactive) |
| O=S(=O)(Nc1nnc(-c2ccc3c(c2)OCCO3)o1)c1ccc(Cl)cc1 | -0.004% (inactive) |
| O=C(Nc1nnc(-c2ccccc2Cl)o1)C1CCCCC1 | 0.003% (inactive) |
| O=C(Nc1nnc(-c2cccnc2)o1)C1CCC1 | -0.001% (inactive) |
| CN1CCC(C(=O)Nc2nnc(-c3ccc4c(c3)OCCO4)o2)CC1 | 0.02% (inactive) |
| O=C(Cc1ccc(-c2ccccc2)cc1)NC1CNC1 | 0.01% (inactive) |
| CCn1nnnc1/N=C/c1ccc(N2CCCCC2)cc1 | 0.106% (inactive) |
| Cc1ccc2cc3c(NC(=O)c4cc5ccccc5o4)nn(C)c3nc2c1 | 0.014% (inactive) |
| Cc1ccc2cc3c(NC(=O)Cc4ccco4)nn(C)c3nc2c1 | 0.407% (inactive) |
| Cc1ccc2cc3c(NC(=O)c4ccc(C)o4)nn(C)c3nc2c1 | 1.77% (inactive) |
| CN(C)/C=N/c1nnc(-c2ccc3c(c2)OCCO3)o1 | 0.022% (inactive) |
| CC(C)(C)OC(=O)N1CCC(C(=O)Nc2nnc(-c3ccc4c(c3)OCCO4)o2)CC1 | 0.011% (inactive) |
